# Experimental data published in PubChem BioAssay (NCI).
#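 Growth conditions: 96-well plates. Treatment: test compound, 48 hours, 5 concentrations. Analysis: linear interpolation between bracketing concentrations; unreached endpoints set to highest concentration. TGI denotes the concentration required for complete inhibition of growth.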
# How the values were obtained:
# Test in all cases: growth of human tumour cells (NCI), 48 h
# NCI-H460 lung = tested on: NCI-H460 lung
# ACHN renal = tested on: ACHN renal
# SNB-78 CNS = tested on: SNB-78 CNS
# CAKI-1 renal = tested on: CAKI-1 renal
# EKVX NSCLC = tested on: EKVX NSCLC
# SNB-75 CNS = tested on: SNB-75 CNS
# DMS 114 small cell lung = tested on: DMS 114 small cell lung
# LXFL 529 NSCLC = tested on: LXFL 529 NSCLC
# HL-60(TB) leukemia = tested on: HL-60(TB) leukemia
# OVCAR-3 ovarian = tested on: OVCAR-3 ovarian
# SK-MEL-5 melanoma = tested on: SK-MEL-5 melanoma
# MALME-3M melanoma = tested on: MALME-3M melanoma
# KM20L2 colon = tested on: KM20L2 colon
# K-562 leukemia = tested on: K-562 leukemia
# NCI-H23 lung = tested on: NCI-H23 lung
# UACC-62 melanoma = tested on: UACC-62 melanoma
# COLO 205 colon = tested on: COLO 205 colon
# LOX IMVI melanoma = tested on: LOX IMVI melanoma
# M19-MEL melanoma = tested on: M19-MEL melanoma
# SK-OV-3 ovarian = tested on: SK-OV-3 ovarian
# MOLT-4 leukemia = tested on: MOLT-4 leukemia
# A498 renal = tested on: A498 renal
# HT29 colon = tested on: HT29 colon
# SF-539 CNS = tested on: SF-539 CNS
# TK-10 renal = tested on: TK-10 renal
# HCT-116 colon = tested on: HCT-116 colon
# SN12C renal = tested on: SN12C renal
# OVCAR-4 ovarian = tested on: OVCAR-4 ovarian
# OVCAR-8 ovarian = tested on: OVCAR-8 ovarian
# KM12 colon = tested on: KM12 colon
# M14 melanoma = tested on: M14 melanoma
# U251 CNS = tested on: U251 CNS
# HOP-18 NSCLC = tested on: HOP-18 NSCLC
# 786-0 renal = tested on: 786-0 renal
# HOP-92 NSCLC = tested on: HOP-92 NSCLC
# OVCAR-5 ovarian = tested on: OVCAR-5 ovarian
# SF-295 CNS = tested on: SF-295 CNS
# XF 498 CNS = tested on: XF 498 CNS
# UACC-257 melanoma = tested on: UACC-257 melanoma
# IGROV1 ovarian = tested on: IGROV1 ovarian
# UO-31 renal = tested on: UO-31 renal
# NCI-H522 lung = tested on: NCI-H522 lung
# SK-MEL-28 melanoma = tested on: SK-MEL-28 melanoma
# SW-620 colon = tested on: SW-620 colon
# CCRF-CEM leukemia = tested on: CCRF-CEM leukemia
# SK-MEL-2 melanoma = tested on: SK-MEL-2 melanoma
# SNB-19 CNS = tested on: SNB-19 CNS
# HOP-62 NSCLC = tested on: HOP-62 NSCLC
# A549 NSCLC = tested on: A549 NSCLC
# SF-268 CNS = tested on: SF-268 CNS
# RPMI-8226 leukemia = tested on: RPMI-8226 leukemia
# DMS 273 small cell lung = tested on: DMS 273 small cell lung
# HCT-15 colon = tested on: HCT-15 colon
# DLD-1 colon = tested on: DLD-1 colon
smiles,measurement,setting,value
CCCN1CN(C(C(=O)N[C@@H]2C(=O)N3C2SC(C)(C)C3C(=O)O)c2ccccc2)CSC1=S (some centres undefined),TGI,NCI-H460 lung,> 100 µM
same,TGI,ACHN renal,> 100 µM
same,TGI,SNB-78 CNS,> 100 µM
same,TGI,CAKI-1 renal,> 100 µM
same,TGI,EKVX NSCLC,> 100 µM
same,TGI,SNB-75 CNS,> 100 µM
same,TGI,DMS 114 small cell lung,94.1 µM
same,TGI,LXFL 529 NSCLC,> 100 µM
same,TGI,HL-60(TB) leukemia,> 100 µM
same,TGI,OVCAR-3 ovarian,> 100 µM
same,TGI,SK-MEL-5 melanoma,> 100 µM
same,TGI,MALME-3M melanoma,> 100 µM
same,TGI,KM20L2 colon,> 100 µM
same,TGI,K-562 leukemia,> 100 µM
same,TGI,NCI-H23 lung,> 100 µM
same,TGI,UACC-62 melanoma,> 100 µM
same,TGI,COLO 205 colon,> 100 µM
same,TGI,LOX IMVI melanoma,> 100 µM
same,TGI,M19-MEL melanoma,> 100 µM
same,TGI,SK-OV-3 ovarian,> 100 µM
same,TGI,MOLT-4 leukemia,> 100 µM
same,TGI,A498 renal,> 100 µM
same,TGI,HT29 colon,> 100 µM
same,TGI,SF-539 CNS,> 100 µM
same,TGI,TK-10 renal,> 100 µM
same,TGI,HCT-116 colon,> 100 µM
same,TGI,SN12C renal,> 100 µM
same,TGI,OVCAR-4 ovarian,> 100 µM
same,TGI,OVCAR-8 ovarian,> 100 µM
same,TGI,KM12 colon,> 100 µM
same,TGI,M14 melanoma,> 100 µM
same,TGI,U251 CNS,> 100 µM
same,TGI,HOP-18 NSCLC,> 100 µM
same,TGI,786-0 renal,> 100 µM
same,TGI,HOP-92 NSCLC,> 100 µM
same,TGI,OVCAR-5 ovarian,> 100 µM
same,TGI,SF-295 CNS,> 100 µM
same,TGI,XF 498 CNS,> 100 µM
same,TGI,UACC-257 melanoma,> 100 µM
same,TGI,IGROV1 ovarian,> 100 µM
same,TGI,UO-31 renal,> 100 µM
same,TGI,NCI-H522 lung,81.5 µM
same,TGI,SK-MEL-28 melanoma,> 100 µM
same,TGI,SW-620 colon,31.7 µM
same,TGI,CCRF-CEM leukemia,> 100 µM
same,TGI,SK-MEL-2 melanoma,> 100 µM
same,TGI,SNB-19 CNS,> 100 µM
same,TGI,HOP-62 NSCLC,> 100 µM
same,TGI,A549 NSCLC,> 100 µM
same,TGI,SF-268 CNS,> 100 µM
same,TGI,RPMI-8226 leukemia,> 100 µM
same,TGI,DMS 273 small cell lung,> 100 µM
same,TGI,HCT-15 colon,> 100 µM
same,TGI,DLD-1 colon,> 100 µM
